Legend:
[1] = system: KARPAS-1106P (B-Cell Non-Hodgkin's Lymphoma); assay: Bliss excess, mean over the matrix (fraction); higher = more synergy
Summary of the method: (§1)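 After 24 hours at 37°C and 5% CO2 in 1536-well plates, cells in DMEM/F12 or RPMI plus 10% FBS received two-drug dose matrices for 72 hours. Viability came from CellTiter-Glo 2.0 luminescence and was scaled as inhibition, anchored at 0 by vehicle wells and at 1 by blank wells. Combination Emax is taken as the second-highest inhibition in the matrix, and Bliss excess as the observed combination effect less EA + EB − EA·EB, with EA and EB the single-agent effects.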

[2] = system: MFH-ino (Other Solid Carcinomas); assay: as above
Summary of the method: as §1

ES7 (Ewing's Sarcoma) = assay: as above
Summary of the method: as §1

[3] = system: TE-5 (Esophageal Squamous Cell Carcinoma); assay: as above
Summary of the method: as §1

[4] = system: DOV13 (Ovarian Carcinoma); assay: as above
Summary of the method: as §1

[5] = system: HT-29 (Colorectal Carcinoma); assay: as above
Summary of the method: as §1

[6] = system: SW1088 (Low Grade Glioma); assay: as above
Summary of the method: as §1

[7] = system: G-292-Clone-A141B1 (Osteosarcoma); assay: as above
Summary of the method: as §1

[8] = system: DB (B-Cell Non-Hodgkin's Lymphoma); assay: as above
Summary of the method: as §1

[9] = system: KARPAS-620 (Plasma Cell Myeloma); assay: as above
Summary of the method: as §1

[10] = system: MDA-MB-231 (Breast Carcinoma); assay: as above
Summary of the method: as §1

NCI-H2595 (Mesothelioma) = assay: as above
Summary of the method: as §1

DSH1 (Bladder Carcinoma) = assay: as above
Summary of the method: as §1

[11] = system: IHH-4 (Thyroid Gland Carcinoma); assay: as above
Summary of the method: as §1

[12] = system: SW780 (Bladder Carcinoma); assay: combination Emax (second highest fraction inhibited in the dose matrix, 72 h); higher = more inhibition; extreme values may be limits of the assay
Summary of the method: as §1

RH-1 (Ewing's Sarcoma) = assay: as above
Summary of the method: as §1

[13] = system: KM-H2 (Hodgkin's Lymphoma); assay: as above
Summary of the method: as §1

[14] = system: SUIT-2 (Pancreatic Carcinoma); assay: as above
Summary of the method: as §1

[15] = system: TGBC24TKB (Biliary Tract Carcinoma); assay: as above
Summary of the method: as §1

[16] = system: SW756 (Cervical Carcinoma); assay: as above
Summary of the method: as §1
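Wherever Bliss excess, mean over the matrix is given: after 72 h of two-drug dosing.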

Row | combination Emax [13] | Structure (SMILES) | Bliss excess [1] | Bliss excess [2] | Bliss excess (ES7 (Ewing's Sarcoma)) | Bliss excess [3] | Bliss excess [4] | Bliss excess [5] | Bliss excess [6] | Bliss excess [7] | Bliss excess [8] | Bliss excess [9] | Bliss excess [10] | Bliss excess (NCI-H2595 (Mesothelioma)) | Bliss excess (DSH1 (Bladder Carcinoma)) | Bliss excess [11] | combination Emax [12] | combination Emax (RH-1 (Ewing's Sarcoma)) | combination Emax [14] | combination Emax [15] | combination Emax [16]
1 | 0.939 | CS(=O)(=O)CCNCc1ccc(-c2ccc3ncnc(Nc4ccc(OCc5cccc(F)c5)c(Cl)c4)c3c2)o1 [Lapatinib] + NC1(c2ccc(-c3nc4ccn5c(=O)[nH]nc5c4cc3-c3ccccc3)cc2)CCC1 [MK-2206] (first compound max 10 µM, 7x7, partner max 10 µM) | -0.0022 | -0.102 | 0.036 | 0.0735 | 0.0362 | 0.0084 | 0.0163 | -0.0004 | -0.0017 | 0.032 | 0.0364 | -0.0559 | 0.0917 | 0.0087 | 0.737 | 0.936 | 0.361 | 0.957 | 0.175
2 |  | CC1(C)CCC(CN2CCN(c3ccc(C(=O)NS(=O)(=O)c4ccc(NCC5CCOCC5)c([N+](=O)[O-])c4)c(Oc4cnc5[nH]ccc5c4)c3)CC2)=C(c2ccc(Cl)cc2)C1 [Venetoclax] + CS(=O)(=O)CCNCc1ccc(-c2ccc3ncnc(Nc4ccc(OCc5cccc(F)c5)c(Cl)c4)c3c2)o1 [Lapatinib] (first compound max 1 µM, 7x7, partner max 10 µM) | -0.0183 | -0.0699 | 0.0086 | -0.0388 | -0.0228 | -0.0493 | -0.0313 | -0.045 | 0.0803 | 0.0569 | -0.034 | -0.0574 | -0.021 | -0.0082 |  |  |  |  | 
